Here are results for 37 compounds from ChEMBL document CHEMBL2086285, “Targeting the liver stage of malaria parasites: a yet unmet goal” (J Med Chem, 2012).

Structures are written as SMILES.

The test system of the first assay is Plasmodium cynomolgi. The assay can be described thus: Antimalarial activity against Plasmodium cynomolgi M infected in rhesus monkey administered as po qd for 7 days. In kind it is functional. The following applies: in Macaca mulatta, 168 h.
As a reminder, the ED50 is the midpoint of the dose-response relation. `COc1cc(NC(C)CCCN)c2ncccc2c1OC` (configuration not stated) had a median effective dose (ED50) of 0.44 mg/kg.

`COc1cc(NCCCC(C)N)c2ncccc2c1Oc1cccc(C(F)(F)F)c1` (configuration not stated) returned an ED50 of 0.5 mg/kg.

On to `COc1cc(NC(C)CCCN)c2ncccc2c1C(=O)C(F)(F)F` (configuration not stated), for which it took a dose of 0.44 mg/kg to reach the 50% effect level (ED50). For `COc1cc(NC(C)CCCN)c2nc(C)cc(C)c2c1` (configuration not stated), the ED50 worked out at 0.36 mg/kg. The compound `CCN(CC)CCCNc1cc(OC)cc2c(C)cc(C)nc12` registered a median effective dose (ED50) of 0.36 mg/kg. Consider `COc1cc(NC(C)CCCN)c2nc(C)ccc2c1Oc1cccc(C(F)(F)F)c1` (configuration not stated), for which the median effective dose (ED50) was 0.36 mg/kg. Regarding `COc1cc(NC(C)CCCN)c2nccc(C)c2c1F` (configuration not stated), it took a dose of 0.36 mg/kg to reach the 50% effect level (ED50). In the case of `COc1cc(NC(C)CCCN)c2nc(C)ccc2c1` (configuration not stated), it took a dose of 0.38 mg/kg to reach the 50% effect level (ED50). Consider `COc1cc(NC(C)CCCN)c2nccc(C)c2c1` (configuration not stated), for which the 50% effect level (ED50) was put at a dose of 0.2 mg/kg. `COc1cc(NC(C)CCCN)c2nccc(C)c2c1Oc1cccc(C(F)(F)F)c1` (configuration not stated) had an ED50 of 0.11 mg/kg.

`COc1cc(NC(C)CCCN)c2ncccc2c1Oc1ccc(F)cc1` (configuration not stated) showed an ED50 of 0.23 mg/kg. The compound `CCOc1c(OC)cc(NC(C)CCCN)c2ncccc12` (configuration not stated) had a median effective dose (ED50) of 0.18 mg/kg.

`COc1cc(NC(C)CCCN)c2nccc(C)c2c1OC` (configuration not stated) came in with an ED50 of 0.098 mg/kg.

Regarding `COc1cc(NC(C)CCCN)c2ncccc2c1` (configuration not stated) [PRIMAQUINE], it took a dose of 0.38 mg/kg to reach the 50% effect level (ED50). As to `CCN(CC)CCCCCCNc1cc(OC)cc2c(C)ccnc12` [SITAMAQUINE], the ED50 came to 0.35 mg/kg.

For a further assay, the system named is Plasmodium berghei. The assay can be described thus: Antimalarial activity against liver stages of Plasmodium berghei in human HepG2 cells assessed as growth inhibition at 10 ug/mL. In kind it is functional. Conditions: read-out: GI.
For `COc1c(-c2c(C)cc(OC)c3c(O)cccc23)ccc2c1[C@@H](C)N[C@H](C)C2`, the inhibition of growth at 10 µg/mL is 48.8%.

`COc1ccc(-c2c(C)cc(OC)c3c(O)cccc23)c2c1[C@@H](C)N(C=O)[C@H](C)C2`: the inhibition of growth at 10 µg/mL stood at 98.3%. Consider `COc1cc(C)c(-c2ccc(OC(=O)c3ccccc3)c3c2C[C@@H](C)N(C=O)[C@@H]3C)c2cccc(O)c12`, for which the inhibition of growth at 10 µg/mL amounted to 52.7%.

`COc1c2c(cc(O)c1-c1c(C)cc(OC)c3c(OC)cccc13)C[C@@H](C)N=C2C` [ANCISTROBARTERINE A]: the inhibition of growth at 10 µg/mL was found to be 51.6%. In the case of `COc1c(C)nc(C)c2c(OC)c(-c3c(C)cc(OC)c4c(OC)cccc34)ccc12` [DIONCOPHYLLACINE A], the inhibition of growth at 10 µg/mL was determined as 41.9%. Turning to `COc1cccc2c(-c3ccc4c(c3O)[C@@H](C)N[C@H](C)C4)c(C)cc(OC)c12` [DIONCOPHYLLINE A], the inhibition of growth at 10 µg/mL is 67.5%.

In another assay the test system is Plasmodium yoelii. The assay can be described thus: Antimalarial activity against Plasmodium yoelii infected in CD-1 mouse assessed as efficacy at 160 mg/kg, ip. In kind it is functional. Conditions: route intraperitoneal.
With `C[C@H]1c2cccc(O)c2C(=O)C2=C(O)[C@]3(O)C(=O)C(C(N)=O)=C(O)[C@@H](N(C)C)[C@@H]3[C@@H](O)[C@@H]21.O` [DOXYCYCLINE], the Efficacy was 100%.

In a further assay the test system is Plasmodium yoelii. Kind of assay: Antimalarial activity against Plasmodium yoelii infected in CD-1 mouse assessed as efficacy at 40 mg/kg, ip. Conditions: route intraperitoneal. In kind it is functional.
Turning to `C[C@H]1c2cccc(O)c2C(=O)C2=C(O)[C@]3(O)C(=O)C(C(N)=O)=C(O)[C@@H](N(C)C)[C@@H]3[C@@H](O)[C@@H]21.O` [DOXYCYCLINE], the Efficacy was 40%.

Another assay has as its system Plasmodium berghei. Kind of assay: Antimalarial activity against liver stages of Plasmodium berghei assessed as inhibition of cytochrome bc1 complex. Type of assay: functional, organism-based.
Conditions: not given
Usually IC50 stands for the point on the concentration scale where inhibition reaches its midpoint. With `CCCCCC[C@@H](C)CC1=C(O)C(=O)c2ccccc2C1=O`, the concentration for half-maximal inhibition (IC50) was found to be 0.0962 µM. On the same count and under the same terms, for `C[C@H](CCCCCC(F)(F)F)CC1=C(O)C(=O)c2ccccc2C1=O` the value was 0.0171 µM; for `CCCCCC[C@@H](C)CC1=C(O)C(=O)c2c(C)cccc2C1=O`, 0.246 µM; for `Cc1cccc2c1C(=O)C(O)=C(C[C@H](C)CCCCCC(F)(F)F)C2=O`, 4.45 µM.

For the next assay, the system named is Plasmodium vivax. The assay can be described thus: Antimalarial activity against Plasmodium vivax assessed as effect on cure rate after 28 days. Type of assay: functional.
Conditions: not given
With `CCC[C@@H]1C[C@@H](C(=O)N[C@@H]([C@H]2O[C@H](SC)[C@H](O)[C@@H](O)[C@H]2O)[C@H](C)Cl)N(C)C1` [CLINDAMYCIN], the Activity is 56%. Turning to `C[C@H]1c2cccc(O)c2C(=O)C2=C(O)[C@]3(O)C(=O)C(C(N)=O)=C(O)[C@@H](N(C)C)[C@@H]3[C@@H](O)[C@@H]21.O` [DOXYCYCLINE], the Activity came to 56%.

Regarding `CN(C)[C@@H]1C(O)=C(C(N)=O)C(=O)[C@@]2(O)C(O)=C3C(=O)c4c(O)cccc4[C@@](C)(O)[C@H]3C[C@@H]12` [TETRACYCLINE], the Activity is recorded as 56%.

The subject of another assay is Plasmodium yoelii. The assay can be described thus: Antimalarial activity against Plasmodium yoelii infected in mouse assessed as protection against parasitic infection at 160 mg/kg, po.
Conditions: not given
Type of assay: functional.
As for `CC(C)N1C(=O)C(=O)N=C1N/C(=N\C(=O)OC(C)(C)C)Nc1ccc(Cl)c(Cl)c1`, the Activity is 100%. For the compound `CCOC(=O)/N=C(\NC1=NC(=O)C(=O)N1C(C)C)Nc1ccc(Cl)c(Cl)c1`, the Activity was 100%.

The test system of another assay is Plasmodium yoelii. The assay can be described thus: Antimalarial activity against liver stages of Plasmodium yoelii after 96 hrs. Type of assay: functional, organism-based. The following applies: Plasmodium yoelii, 96 h.
The compound `CC(=O)N(O)CCCCCNC(=O)CCC(=O)N(O)CCCCCNC(=O)CCC(=O)N(O)CCCCCN` [DEFEROXAMINE] registered an IC50 of 20 µM. As for `C[C@]1(C(=O)O)CSC(c2ncccc2O)=N1` [DESFERRITHIOCIN], half-maximal inhibition (IC50) required 10 µM.

The next assay has as its system Plasmodium falciparum. Kind of assay: Antimalarial activity against liver stages of Plasmodium falciparum after 96 hrs.
Conditions: not given
Type of assay: functional, organism-based.
Regarding `CC(=O)N(O)CCCCCNC(=O)CCC(=O)N(O)CCCCCNC(=O)CCC(=O)N(O)CCCCCN` [DEFEROXAMINE], it took 3.4 µM to reach half-maximal inhibition (IC50).

`C[C@]1(C(=O)O)CSC(c2ncccc2O)=N1` [DESFERRITHIOCIN] came in with a half-maximal inhibitory concentration (IC50) of 2.9 µM.

The subject of the next assay is Plasmodium yoelii. The assay can be described thus: Antimalarial activity against liver stages of Plasmodium yoelii 17XNL expressing GFP infected in human HepG2 cells transfected with CD81 assessed as growth inhibition of hepatic parasite after 40 hrs by flow cytometry. In kind it is functional, organism-based.
Conditions: not given
For the compound `Oc1c(Cl)cc(Cl)c(Cl)c1Cc1c(O)c(Cl)cc(Cl)c1Cl` [HEXACHLOROPHENE], the IC50 is 4 µM. As for `CO[C@H]1/C=C/O[C@@]2(C)Oc3c(C)c(O)c4c(O)c(c(/C=N/N5CCN(C)CC5)c(O)c4c3C2=O)NC(=O)/C(C)=C\C=C\[C@H](C)[C@H](O)[C@@H](C)[C@@H](O)[C@@H](C)[C@H](OC(C)=O)[C@@H]1C` [RIFAMPIN], the IC50 came to 22.2 µM.

Another assay concerns Plasmodium yoelii. Kind of assay: Antimalarial activity against liver stages of Plasmodium yoelii. In kind it is functional, organism-based.
Conditions: not given
For the compound `CN1CNC(=O)N[C@H](Cc2ccccc2)C1=O`, the IC50 is > 200 µM.

With `CN1CN(Cc2ccccc2)C(=O)N[C@@H](Cc2ccccc2)C1=O`, the IC50 was > 200 µM.

Another assay deals with Plasmodium berghei. Kind of assay: Antimalarial activity against liver stages of Plasmodium berghei.
Conditions: not given
Type of assay: functional, organism-based.
`COc1cc(NC(C)CCCNCc2ccc(CO[C@H]3O[C@@H]4O[C@@]5(C)CC[C@H]6[C@H](C)CCC([C@H]3C)[C@@]46OO5)cc2)c2ncccc2c1` (some centres not stated) came in with a half-maximal inhibitory concentration (IC50) of 0.155 µM. For the compound `COc1cc(NC(C)CCCN)c2ncccc2c1` (configuration not stated) [PRIMAQUINE], the IC50 was 13 µM.
